Values joined by “and” are separate entries in the source; they are usually repeats but may differ in a detail not shown here. Identical values can stand only once. Like-named read-outs stand apart in the source and are kept apart here. Marks after values point to notes of the source that are not given here.
Tests used:
Alternaria brassicae = test: Example O: preventative in vivo test with Alternaria brassicae (leaf spot on radish); conditions: 500 ppm, evaluation 5 days after inoculation
Protocol: The active compounds tested are prepared by homogenization in a mixture of acetone/Tween/DMSO and then diluted with water to the desired active compound concentration. Radish plants (cultivar “Pernod Clair”), sown in a 50/50 peat/pozzolana soil substrate and cultivated at 17° C., are treated at the 2-leaf stage by spraying with the active compound, prepared as above. As a control, plants are treated with the mixture of acetone/Tween/DMSO/water without the active compound. After 24 hours, the plants are inoculated by spraying the leaves with an aqueous suspension of Alternaria brassicae spores.

Uromyces appendiculatus [1] = test: Example W: preventative in vivo test with Uromyces appendiculatus (bean rust); conditions: 500 ppm, evaluation 10 days after inoculation
Protocol: The active compounds tested are prepared by homogenization in a mixture of acetone/Tween/DMSO and then diluted with water to the desired active compound concentration. Bean plants (cultivar “Saxa”), sown in a 50/50 peat/pozzolana soil substrate and cultivated at 24° C., are treated at the 2-leaf stage (height 9 cm) by spraying with the active compound, prepared as above. As a control, plants are treated with the mixture of acetone/Tween/DMSO/water without the active compound. After 24 hours, the plants are inoculated by spraying the leaves with an aqueous suspension of Uromyces appendiculatus spores.

Puccinia recondita = test: Example T: preventative in vivo test with Puccinia recondita (brown rust on wheat); conditions: 500 ppm, evaluation 10 days after inoculation
Protocol: The active compounds tested are prepared by homogenization in a mixture of acetone/Tween/DMSO and then diluted with water to the desired active compound concentration. Wheat plants (cultivar “Scipion”), sown in a 50/50 peat/pozzolana soil substrate and cultivated at 22° C. (12 h)/20° C. (12 h), are treated at the 1-leaf stage (height 10 cm) by spraying with the active compound, prepared as above. As a control, plants are treated with the mixture of acetone/Tween/DMSO/water without the active compound. After 24 hours, the plants are inoculated by spraying the leaves with an aqueous suspension of Puccinia recondita spores.

Sphaerotheca fuliginea [2] = test: Example V: preventative in vivo test with Sphaerotheca fuliginea (powdery mildew on cucumber); conditions: 500 ppm, evaluation 12 days after inoculation
Protocol: The active compounds tested are prepared by homogenization in a mixture of acetone/Tween/DMSO and then diluted with water to the desired active compound concentration. Cucumber plants (cultivar “Vert petit de Paris”), sown in a 50/50 peat/pozzolana soil substrate and cultivated at 24° C., are treated at the Z11 cotyledon stage by spraying with the active compound, prepared as above. As a control, plants are treated with the mixture of acetone/Tween/DMSO/water without the active compound. After 24 hours, the plants are inoculated by spraying the leaves with an aqueous suspension of Sphaerotheca fuliginea spores. The inoculated cucumber plants are incubated at about 20° C./25° C. and a relative atmospheric humidity of 60/70%.

Septoria tritici [3] = test: Example U: preventative in vivo test with Septoria tritici (leaf blotch disease on wheat); conditions: 500 ppm, evaluation 21 to 28 days after inoculation
Protocol: The active compounds tested are prepared by homogenization in a mixture of acetone/Tween/DMSO and then diluted with water to the desired active compound concentration. Wheat plants (cultivar “Scipion”), sown in a 50/50 peat/pozzolana soil substrate and cultivated at 22° C. (12 h)/20° C. (12 h), are treated at the 1-leaf stage (height 10 cm) by spraying with the active compound, prepared as above. As a control, plants are treated with the mixture of acetone/Tween/DMSO/water without the active compound. After 24 hours, the plants are inoculated by spraying the leaves with an aqueous suspension of cryogenically preserved Septoria tritici spores.

Phytophthora infestans = format: in vivo; conditions: tomato, preventative, 500 ppm, evaluation 5 days after inoculation
[4] = log P by HPLC on reversed-phase columns (EEC directive 79/831 Annex V.A8); format: physicochemical
Protocol: The log P values were measured according to EEC directive 79/831 Annex V.A8 by HPLC (High Performance Liquid Chromatography) on reversed-phase columns, using the methods below: […] Calibration was carried out using unbranched alkan-2-ones (having from 3 to 16 carbon atoms) with known log P values (the log P values were determined by the retention times using linear interpolation between two successive alkanones). The lambda maX values were determined in the maxima of the chromatographic signals using the UV spectra from 200 nm to 400 nm.

Pyrenophora teres = test: Example K: Pyrenophora teres test (barley)/protective; format: in vivo; conditions: protective, 500 ppm, evaluation 8 days after inoculation
Protocol: (§1) Solvent: 49 parts by weight of N,N-dimethylacetamide Emulsifier: 1 part by weight of alkylaryl polyglycol ether To produce a suitable preparation of active compound, 1 part by weight of active compound is mixed with the stated amounts of solvent and emulsifier, and the concentrate is diluted with water to the desired concentration. To test for protective activity, young plants are sprayed with the preparation of active compound at the stated application rate. After the spray coating has dried on, the plants are sprayed with a spore suspension of Pyrenophora teres.

Uromyces appendiculatus [5] = test: Example E: Uromyces test (bean)/protective; format: in vivo; conditions: protective, 10 ppm, evaluation 10 days after inoculation
Protocol: Solvents: 24.5 parts by weight of acetone • 24.5 parts by weight of dimethylacetamide Emulsifier: 1 part by weight of alkylaryl polyglycol ether To produce a suitable preparation of active compound, 1 part by weight of active compound is mixed with the stated amounts of solvent and emulsifier, and the concentrate is diluted with water to the desired concentration. To test for protective activity, young plants are sprayed with the preparation of active compound at the stated application rate. […] The plants are then placed in a greenhouse at about 21° C. and a relative atmospheric humidity of about 90%.

Pyricularia oryzae = format: in vivo; conditions: rice, protective, 500 ppm, evaluation 7 days after inoculation
Septoria tritici [6] = test: Example I: Septoria tritici test (wheat)/protective; format: in vivo; conditions: protective, 500 ppm, evaluation 21 days after inoculation
Protocol: as §1, with “Septoria tritici.” for “Pyrenophora teres.”

[7] = tested on: Fusarium nivale (var. majus); test: Example M: Fusarium nivale (var. majus) test (wheat)/protective; format: in vivo; conditions: protective, 500 ppm, evaluation 5 days after inoculation
Protocol: as §1, with “Fusarium nivale (var. majus).” for “Pyrenophora teres.”

Puccinia triticina = test: Example L: Puccinia triticina test (wheat)/protective; format: in vivo; conditions: protective, 500 ppm, evaluation 8 days after inoculation
Protocol: as §1, with “sprayed with spores with a spore” for “sprayed with a spore”, “suspension of Puccinia triticina.” for “suspension of Pyrenophora teres.”

[8] = tested on: Blumeria graminis f.sp. hordei; test: Example G: Blumeria graminis test (barley)/protective; format: in vivo; conditions: protective, 500 ppm, evaluation 7 days after inoculation
Protocol: Solvent: 49 parts by weight of N,N-dimethylacetamide Emulsifier: 1 part by weight of alkylaryl polyglycol ether To produce a suitable preparation of active compound, 1 part by weight of active compound is mixed with the stated amounts of solvent and emulsifier, and the concentrate is diluted with water to the desired concentration. To test for protective activity, young plants are sprayed with the preparation of active compound at the stated application rate. After the spray coating has dried on, the plants are dusted with spores of Blumeria graminis f.sp. hordei.

Fusarium graminearum = format: in vivo; conditions: barley (heading), protective, 500 ppm, evaluation 5 days after inoculation
Sphaerotheca fuliginea [9] = test: Example B: Sphaerotheca test (cucumber)/protective; format: in vivo; conditions: protective, 500 ppm, evaluation 7 days after inoculation
Protocol: Solvent: 49 parts by weight of N,N-dimethylformamide Emulsifier: 1 part by weight of alkylaryl polyglycol ether To produce a suitable preparation of active compound, 1 part by weight of active compound is mixed with the stated amounts of solvent and emulsifier, and the concentrate is diluted with water to the desired concentration. To test for protective activity, young cucumber plants are sprayed with the preparation of active compound at the stated application rate. 1 day after the treatment, the plants are inoculated with a spore suspension of Sphaerotheca fuliginea. The plants are then placed in a greenhouse at 70% relative air humidity and a temperature of 23° C.

Leptosphaeria nodorum = test: Example H: Leptosphaeria nodorum test (wheat)/protective; format: in vivo; conditions: protective, 500 ppm, evaluation 8 days after inoculation
Protocol: as §1, with “Leptosphaeria nodorum.” for “Pyrenophora teres.”

Alternaria solani = test: Example A: Alternaria test (tomato)/protective; format: in vivo; conditions: protective, 500 ppm, evaluation 7 days after inoculation
Protocol: Solvent: 49 parts by weight of N,N-dimethylformamide Emulsifier: 1 part by weight of alkylaryl polyglycol ether To produce a suitable preparation of active compound, 1 part by weight of active compound is mixed with the stated amounts of solvent and emulsifier, and the concentrate is diluted with water to the desired concentration. […] The plants then remain at 96% rel. atmospheric humidity and a temperature of 20° C.

SMILES: Fc1ccc(C2(Cn3ccnc3I)OC2c2ccccc2Cl)cc1 (mixture of isomers) [Example 6]
- Efficacy % (Alternaria brassicae): 75%

SMILES: Fc1cc(Cl)ccc1C1(Cn2ccnc2I)OC1c1ccccc1Cl (mixture of isomers) [Example 9]
- Efficacy % (Uromyces appendiculatus [1]): 93%
- Efficacy % (Puccinia recondita): 86%
- Efficacy % (Sphaerotheca fuliginea [2]): 100%
- Efficacy % (Septoria tritici [3]): 100%

SMILES: Fc1ccc(C2(Cn3ccnc3I)OC2c2ccccc2Cl)c(Cl)c1 (mixture of isomers) [Example 15]
- Efficacy % (Uromyces appendiculatus [1]): 100%
- Efficacy % (Puccinia recondita): 100%
- Efficacy % (Sphaerotheca fuliginea [2]): 98%
- Efficacy % (Septoria tritici [3]): 86%

SMILES: Fc1ccc([C@]2(Cn3ccnc3I)O[C@@H]2c2ccccc2Cl)c(F)c1 (relative stereo) [Example 13, rel-1-{[(2R,3R)-3-(2-chlorophenyl)-2-(2,4-difluorophenyl)oxiran-2-yl]methyl}-2-iodo-1H-imidazole]
- Efficacy % (Phytophthora infestans): 98%
- chromatographic logP ([4]; pH 2.7, log P(HCOOH)): 2.86
- chromatographic logP ([4]; pH 2.7, logP): 2.86

SMILES: CC(=Cc1ccccc1Cl)c1ccc(F)cc1F [1-[1-(2-chlorophenyl)prop-1-en-2-yl]-2,4-difluorobenzene]
- chromatographic logP ([4]; pH 2.7, HPLC/MS, major diastereoisomer of the mixture, read-out: log P(HCOOH)): 5.05
- chromatographic logP ([4]; pH 2.7, HPLC/MS, minor diastereoisomer of the mixture, read-out: log P(HCOOH)): 5.34

SMILES: Fc1ccc(C(=Cc2ccccc2Cl)CBr)c(F)c1 [1-[3-bromo-1-(2-chlorophenyl)prop-1-en-2-yl]-2,4-difluorobenzene]
- log P(HCOOH) ([4]; pH 2.7): 5.25
- chromatographic logP ([4]; pH 2.7, log P(HCOOH)): 4.8

SMILES: Fc1ccc(C2(CBr)OC2c2ccccc2Cl)c(F)c1 (centres unmarked) [2-(bromomethyl)-3-(2-chlorophenyl)-2-(2,4-difluorophenyl)oxirane]
- log P(HCOOH) ([4]; pH 2.7): 5.00
- chromatographic logP ([4]; pH 2.7, log P(HCOOH)): 4.61

SMILES: OC(Cc1ccccc1F)(Cn1ccnc1I)C1(Cl)CC1 (centres unmarked) [Example 2]
- Eff. % (Pyrenophora teres): 100%
- Eff. % (Uromyces appendiculatus [5]): 91% and 100%
- Eff. % (Pyricularia oryzae): 80%
- Eff. % (Septoria tritici [6]): 86%
- Eff. % [7]: 100%
- logP ([4]; pH 2.7): 2.05
- logP ([4]; pH 7.8): 3.02
- Eff. % (Puccinia triticina): 100%
- Eff. % [8]: 100%
- Eff. % (Fusarium graminearum): 92% and 100%
- Eff. % (Sphaerotheca fuliginea [9]): 92%
- Eff. % (Leptosphaeria nodorum): 93%
- Eff. % (Alternaria solani): 95%

SMILES: OC(Cn1ccnc1I)(c1ccc(Cl)cc1)C1(Oc2ccc(F)cc2)CC1 (centres unmarked) [Example 3]
- logP ([4]; pH 2.7): 2.55
- logP ([4]; pH 7.8): 3.55

SMILES: OC(Cn1ccnc1I)(c1ccc(F)cc1F)C1(Oc2ccc(F)cc2)CC1 (centres unmarked) [Example 5]
- Eff. % (Pyricularia oryzae): 95%
- Eff. % (Sphaerotheca fuliginea [9]): 88%

SMILES: Fc1ccc(C2(Cn3ccnc3I)OC2c2ccccc2Cl)cc1 (centres unmarked) [Example 7]
- logP ([4]; pH 2.7): 2.73^[a]

SMILES: Fc1cc(Cl)ccc1C1(Cn2ccnc2I)OC1c1ccccc1Cl (centres unmarked) [Example 10]
- Efficacy % (Sphaerotheca fuliginea [2]): 98%
- logP ([4]; pH 2.7): 3.23^[a]
- Efficacy % (Septoria tritici [3]): 96%

SMILES: Fc1ccc(C2(Cn3ccnc3I)OC2c2ccccc2Cl)c(F)c1 (centres unmarked) [Example 12, 1-{[3-(2-chlorophenyl)-2-(2,4-difluorophenyl)oxiran-2-yl]methyl}-2-iodo-1H-imidazole]
- Efficacy % (Phytophthora infestans): 88%
- Efficacy % (Uromyces appendiculatus [1]): 99%
- Eff. % (Septoria tritici [6]): 71%
- Efficacy % (Puccinia recondita): 93%
- Efficacy % (Sphaerotheca fuliginea [2]): 100%
- log P(HCOOH) ([4]; pH 2.7): 3.31
- chromatographic logP ([4]; pH 2.7, log P(HCOOH)): 2.92
- chromatographic logP ([4]; pH 2.7, logP): 2.92
- Efficacy % (Septoria tritici [3]): 100%

SMILES: Fc1ccc(C2(Cn3ccnc3I)OC2c2ccccc2Cl)c(Cl)c1 (centres unmarked) [Example 16]
- logP ([4]; pH 2.7): 3.13^[a]

SMILES: Fc1ccc(C2(Cn3ccnc3I)OC2c2ccccc2Cl)c(Cl)c1 (centres unmarked) [Example 17]
- Eff. % (Uromyces appendiculatus [5]): 75%
- Efficacy % (Uromyces appendiculatus [1]): 100%
- Efficacy % (Puccinia recondita): 100%
- Efficacy % (Sphaerotheca fuliginea [2]): 100%
- logP ([4]; pH 2.7): 3.68^[a]
- Efficacy % (Septoria tritici [3]): 97%

SMILES: OC(Cc1c(Cl)cccc1I)(Cn1ccnc1I)C1(Cl)CC1 (centres unmarked) [Example 18]
- Efficacy % (Uromyces appendiculatus [1]): 100%
- Efficacy % (Sphaerotheca fuliginea [2]): 100%
- logP ([4]; pH 2.7): 3.04
- logP ([4]; pH 7.8): 4

Reference: patent US9095136B2, “2-IODO imidazole-derivatives” (BAYER INTELLECTUAL PROPERTY GMBH, priority 2011, dated 2015)
